In one data set the test system is influenza virus. Kind of data set: CPE inhibitory effect confirming assay. It counts as cell-based. The note with it: unidentified influenza virus, 72 h, read-out: CPE_EC50.
The next data set can be described thus: in vivo. The settings on record: oral vs intravenous administration, mice or SD rats, read-out: bioavailability (BA). The method, then: Materials and Methods for Experiments to Evaluate Oral Absorption
(1) Experimental animals: mice or SD rats were used.
(2) Rearing condition: mice or SD rats were allowed free access to solid feed and sterilized tap water.
(3) Setting of dosage and grouping: Oral administration and intravenous administration were performed with the predetermined dosage. Grouping was set as below. (Dosage was changed per compound)
Oral administration 1 to 30 mg/kg (n=2 to 3)
Intravenous administration 0.5 to 10 mg/kg (n=2 to 3)
(4) Preparation of administration solutions: Oral administration was performed as solution or suspension. Intravenous administration was performed after solubilization.
(5) Routes of administration: Oral administration was performed mandatory into the stomach by oral sonde. […]
(6) Evaluation items: Blood was collected serially and concentration of a compound of the present invention in plasma was measured by LC/MS/MS.
(7) Statistical analysis: About transition of concentration of a compound of the present invention in plasma, the area under the plasma concentration versus time curve (AUC) was calculated by non-linear least-squares method program, WinNonlin (a registered trademark), and bioavailability (BA) of a compound of the present invention was calculated from AUCs of the oral administration group and the intravenous administration group. […]

A short description of data set [1]: Metabolism stability test. The settings on record: human liver microsomes, 30 minutes, 37° C., 2 μmol/L of test compound. It counts as in vitro ADME. On the procedure: Test Example 5: Metabolism Stability Test
Using commercially available pooled human hepatic microsomes, a compound of the present invention was reacted for a constant time, and a remaining rate was calculated by comparing a reacted sample and an unreacted sample, thereby, a degree of metabolism in liver was assessed.
A reaction was performed (oxidative reaction) at 37° C. for 0 minute or 30 minutes in the presence of 1 mmol/L NADPII in 0.2 mL of a buffer (50 mmol/L Tris-HCl pH 7.4, 150 mmol/L potassium chloride, 10 mmol/L magnesium chloride) containing 0.5 mg protein/mL of human liver microsomes. After the reaction, 50 μL of the reaction solution was added to 100 μL of a methanol/acetonitrile=1/1 (v/v), mixed and centrifuged at 3000 rpm for 15 minutes. The compound of the present invention in the supernatant was quantified by LC/MS/MS or Solid Phase Extraction (SPE)/MS, and a remaining amount of the compound of the present invention after the reaction was calculated, letting a compound amount at 0 minute reaction time to be 100%. Hydrolysis reaction was performed in the absence of NADPII and glucuronidation reaction was in the presence of 5 mM UDP-glucuronic acid in place of NADPH, followed by similar operations.

For the next data set, the target named is T1, hERG (IKr) (Homo sapiens, UniProt Q12809).
T1 construct: expressed in transfected cells; host or cells: HEK293
Kind of data set: hERG test. The note with it: HEK293 cells expressing hERG channel, pH 7.4, 0.3 to 10 μM of test compound, read-out: % inhibition of tail peak current (IKr). The class given is cell-based. The text has this: Test Example 8: hERG Test
For the purpose of assessing risk of an electrocardiogram QT interval prolongation of the compound of the present invention, effects of the compound of the present invention on delayed rectifier K+ current (IKr), which plays an important role in the ventricular repolarization process, was studied using HEK293 cells expressing human ether-a-go-go related gene (hERG) channel.
After a cell was retained at a membrane potential of −80 mV by whole cell patch clamp method using an automated patch clamp system (PatchXpress 7000A, Axon Instruments Inc.), IKr induced by depolarization pulse stimulation at +40 mV for 2 seconds and, further, repolarization pulse stimulation at −50 mV for 2 seconds, was recorded. After the generated current was stabilized, extracellular solution (NaCl: 135 mmol/L, KCl: 5.4 mmol/L, NaH2PO4: 0.3 mmol/L, CaCl2.2H2O: 1.8 mmol/L, MgCl2.6H2O: 1 mmol/L, glucose: 10 mmol/L, HEPES (4-(2-hydroxyethyl)-1-piperazineethanesulfonic acid): 10 mmol/L, pH=7.4), in which the compound of the present invention had been dissolved at an objective concentration, was applied to the cell at room temperature for 10 minutes. From the recording IKr, an absolute value of the tail peak current was measured based on the current value at the resting membrane potential using analysis software (DataXpress ver. 1, Molecular Devices Corporation).
Background: hERG is a cardiac potassium channel; its block is linked to QT prolongation.

Data set [2] is described as follows: physchem. The note with it: kinetic from dmso stock; 1% DMSO addition conditions; JP-1 or JP-2 solution not stated in result. The class given is physicochemical. The method, then:
Test Example 9: Solubility Test
A 10 mmol/L solution of the compound was prepared with DMSO, and 2 μL of the solution of the compound of the present invention was added, respectively, to 198 μL of JP-1 solution (water were added to 2.0 g of sodium chloride and 7.0 mL of hydrochloric acid to reach 1000 mL) and JP-2 solution (1 volume of water were added to 1 volume of the solution which 3.40 g of potassium dihydrogen phosphate and 3.55 g of anhydrous disodium hydrogen phosphate to reach 1000 mL). The mixture was shaked for 1 hour at a room temperature, and the mixture was filtered. The filtrate was ten-fold diluted with methanol/water=1/1(v/v), and the compound concentration in the filtrate was measured with LC/MS or SPE/MS by the absolute calibration method.

A short description of data set [3]: physchem. The class given is physicochemical. The note with it: thermodynamic from solid, 1 hour at 37° C. On the procedure:
Test Example 10: Powder Solubility Test
Appropriate amounts of the compound of the present invention was put into vials and 200 μL of JP-1st Fluid (water was added to 2.0 g of sodium chloride in 7.0 mL of hydrochloride acid to reach 1000 mL), JP-2nd Fluid (water was added to 500 mL of phosphate buffer solution with a pH of 6.8) and 20 mmol/L sodium taurocholate (TCA)/JP-2nd Fluid (JP-2nd Fluid was added to 1.08 g of TCA in JP-2nd Fluid to reach 100 mL) was added to each vial. When the compound was completely dissolved, appropriate amount of compound was added. After shaken for 1 hour at 37° C., the mixture was filtered and 100 μL of methanol was added to 100 μL of each filtrate (double dilution). Dilution magnification was changed if necessary. After it was confirmed whether there were air bubbles and precipitates in the vials, the vials were shaken with tight stopper. The compound concentration was determined with HPLC by the absolute calibration method.

Each structure is given as a SMILES string. ≈ marks a conversion by molar mass, not a printed value. Read-outs that look alike come from different tables or passages of the source.

T1 sequence (Q12809 whole entry): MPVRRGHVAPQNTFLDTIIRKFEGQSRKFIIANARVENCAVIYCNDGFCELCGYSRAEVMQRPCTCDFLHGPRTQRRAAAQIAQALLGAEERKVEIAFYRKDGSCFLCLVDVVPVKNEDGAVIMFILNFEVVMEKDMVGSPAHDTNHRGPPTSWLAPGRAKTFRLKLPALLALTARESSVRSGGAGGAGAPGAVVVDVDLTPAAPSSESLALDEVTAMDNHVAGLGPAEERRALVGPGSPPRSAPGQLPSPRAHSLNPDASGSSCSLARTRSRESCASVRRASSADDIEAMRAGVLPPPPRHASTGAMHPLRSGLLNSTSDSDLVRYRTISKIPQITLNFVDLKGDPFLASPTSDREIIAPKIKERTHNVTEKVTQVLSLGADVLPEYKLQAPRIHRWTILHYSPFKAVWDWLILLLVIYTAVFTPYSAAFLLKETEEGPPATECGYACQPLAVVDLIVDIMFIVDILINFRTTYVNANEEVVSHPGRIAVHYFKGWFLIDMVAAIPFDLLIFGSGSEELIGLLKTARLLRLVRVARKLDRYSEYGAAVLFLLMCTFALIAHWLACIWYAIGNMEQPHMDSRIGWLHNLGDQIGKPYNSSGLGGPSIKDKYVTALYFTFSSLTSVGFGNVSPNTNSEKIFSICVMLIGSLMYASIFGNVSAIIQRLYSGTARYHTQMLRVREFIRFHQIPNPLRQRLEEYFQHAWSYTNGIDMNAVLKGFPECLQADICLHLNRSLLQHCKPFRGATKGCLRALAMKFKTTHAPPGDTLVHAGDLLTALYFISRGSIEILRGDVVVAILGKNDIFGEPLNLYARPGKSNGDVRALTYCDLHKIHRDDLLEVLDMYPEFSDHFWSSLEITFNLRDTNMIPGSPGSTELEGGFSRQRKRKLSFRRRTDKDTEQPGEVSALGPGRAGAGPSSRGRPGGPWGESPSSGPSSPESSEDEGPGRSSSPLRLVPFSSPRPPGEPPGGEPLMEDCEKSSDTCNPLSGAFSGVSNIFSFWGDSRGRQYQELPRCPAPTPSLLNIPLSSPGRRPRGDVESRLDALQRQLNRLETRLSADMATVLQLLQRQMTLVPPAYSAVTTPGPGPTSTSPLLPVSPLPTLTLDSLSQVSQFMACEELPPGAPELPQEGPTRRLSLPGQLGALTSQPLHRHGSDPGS

The bioavailability is dose-corrected exposure relative to a reference, in per cent. Usually inhibition stands for the drop in the measured response relative to a control, in per cent. For orientation: solubility means how much of the substance goes into solution per volume. As for `O=C1c2c(O)c(=O)ccn2N([C@@H]2c3ccccc3SCc3c2ccc(F)c3F)[C@@H]2COCCN12` [III-2], the EC50 with influenza virus came to 1.13 nM. For the same compound, the bioavailability in “in vivo” was 4.2%. Further, the “% compound remaining after microsomal incubation” value in data set [1] was determined as 90.1%. Moreover, at hERG (IKr), the inhibition at 10 min is 7.9%. Besides, the solubility was 42.2 µM (≈ 20.4 µg/mL) in the data set “physchem [2]”; 7.1 µg/mL (≈ 14.7 µM) in the data set “physchem [3]” (pH 1.2, simulated gastric fluid, JP-1 solution, read-out: powder solubility, JP-1 solution); 4.4 µg/mL (≈ 9.1 µM) in the data set “physchem [3]” (pH 6.8, aqueous buffer, JP-2 solution, read-out: powder solubility, JP-2 solution); 16.1 µg/mL (≈ 33.3 µM) in “physchem [3]” (pH 6.8, fassgf or other biorelevant, 20 mmol/L TCA/JP-2 solution).
